The values that follow come from US10179355B2, “Bioremediation enhancing agents and methods of use” (JRW BIOREMEDIATION, LLC, priority 2007, dated 2019).

Values joined by “and” are separate entries in the source; they are usually repeats but may differ in a detail not shown here. Equal entries are not always repeated.

Common to all, as to assay type: cell-based, Dehalococcoides and Dehalobacter spp.
Experiment [1] concerns dechlorinating bacteria known to convert PCE to ethene. Kind of experiment: Set F: Additional Novel Bioremediation Amendments, PCE dechlorination microcosms. The conditions noted are these: 44 days, nominally 1,000 mg/L. The procedure: (§1) The following components were used in the system for bioremediating contaminated ground water microcosms in Examples 2-8: • 160 milliliter (ml) stoppered serum bottles • 100 ml of anaerobic culture medium, groundwater containing an excess of bioavailable phosphorus and nitrogen at 0.5 mM Phosphate and 1 mM ammonium degassed with a nitrogen sparge • Nominally 1 gram of limestone • 19.54 micromoles (pmoles) Perchloroethene (PCE) • An excess of various electron donors were utilized • 3 ml of inoculum containing dechlorinating bacteria known to convert PCE to ethene.
Set F included microcosms that contained Sodium Gluconate and Sodium Erythorbate. They started at concentrations that were nominally 1,000 mg/L as compared with the sodium lactate control at 7 mM (784 mg/L).
The objective of this set was to characterize the ability of these two novel bioremediation electron donors to completely dechlorinate PCE and characterize the electron donor utilization efficiency as compared with sodium lactate.

The test system is the same in experiment [2]. The experiment is described as follows: Set E: Relative Efficiency of Novel Bioremediation Amendments (electron donors), PCE dechlorination microcosms.
Text: (§2) Sets B, C, D, E, and G further contain figures and tables showing results of the characterization of the Efficiency and the Relative Efficiency of electron donor usage. Efficiency may be defined as the percent of electron donor utilized for dechlorination, and may be calculated by dividing the pmoles of Chloride ion generated by the pmoles of electron donor consumed as measured by either Volatile Fatty Acid (VFA) analysis (Sets B, C, and G) or Chemical Oxygen Demand (COD) analysis (Set D and E). The Relative Efficiency of the electron donor utilization may be defined as the Efficiency of the Electron Donor divided by the Efficiency of the Lactate Control.
as §1
The fifth set tested a variety of different electron donors comparing Crude Glycerin, Sodium Citrate, Ethanol and Whey all charged at nominally 1,000 mg/L to lactate at 7 mM (784 mg/L).
The objective of the study was to test bioremediation amendments for efficacy as electron donors as well as to characterize their Efficiency for dechlorination as compared to the Lactate Control.

For experiment [3] the test system is unchanged. Kind of experiment: Set G: Additional Yeast Metabolites and Polysaccharides as Nutrients, PCE dechlorination microcosms (kinetics, Relative Rate, paired t-test). As to conditions: bottles 1-3. An excerpt:
Certain contaminated materials (or sites) may contain indigenous microbial communities that are sufficient for complete bioremediation of contaminants. For such sites, there is no need to add microbes unless the indigenous microbes are genetically deficient in achieving the desired clean-up goals. For those sites that are microbiologically limited, microorganisms may be added to the contaminated materials (or sites). In one embodiment, the inoculum may be a mixed culture of halo-respiring bacteria that have been enriched to reach an optimal cell density. These mixed cultures of halo-respiring bacteria may be typically obtained from sediment samples from rivers, streams or any waterways. More specifically, the inoculum used in the Examples was originated from a Sangamon River sediment sample (Lodge Park, Piatt County, Ill.) See, e.g., Brennan, R. A., Sanford, R. A. and Werth, C. J. (2006). “Biodegradation of Tetrachloroethene by Chitin Fermentation Products in a Continuous Flow Column System.” Journal of Environ. Engr., June 665-673. This culture had grown for several years on PCE, anaerobic basal salts medium, Wolfe's vitamin solution and various electron donors including lactate (1-2 millimolar (mM)), formate (4 mM) and chitin using the Volatile Interface Transfer Apparatus (VITA) reactor system at the University of Illinois. Brennan, R. A., and Sanford, R. A. (2002). “Continuous steady-state method using Tenax for delivering tetrachloroethene to chlororespiring bacteria.” Appl. Environ. Microbiol., 68(3), 1464-1467. […] Using 16S rRNA gene-specific primers, both Dehalococcoides and Dehalobacter spp. were detected. Quantitative real-time PCR has been used to determine that approximately 1.65×10^7 Dehalococcoides gene copies were present per ml of culture.
For purpose of this disclosure, each bottle may be started with a certain amount of PCE. At subsequent times each bottle may be sampled for the degradation daughter products of PCE, namely trichloroethene (TCE), cis-dichloroethene (DCE), vinyl chloride (VC) and ethene, etc. Trans-DCE and 1,1-DCE are also daughter products of PCE, but they may not be detectable under the conditions disclosed here.
The rate of degradation may be determined by calculating the number of pmoles of chloride ions removed from PCE and subsequently from the amounts of the daughter products generated. The calculation may be performed as follows: Chloride (μmoles)=[…]−4×PCE (μmoles)−3×TCE (pmoles)−2×DCE (μmoles)−VC (μmoles)
The alternative chloride calculation is: Chloride (μmoles)=TCE (μmoles)+2×DCE (μmoles)+3×VC (μmoles)+4×Ethene (μmoles)
Next, the dechlorination rate may be determined for each bottle at each time by dividing the Chloride generated by the time (days). The data may be then normalized to the lactate control by taking the ratio of Chloride Rate (pmoles/day) and the Lactate Control Chloride Rate (pmoles/day). This ratio is called Relative Rate and is dimensionless.
As shown in the Examples, a paired t-test has been conducted to calculate the probability that the Relative Rate of one group (i.e. with Nutrient) is greater than the other group (i.e. without Nutrient). The null hypothesis is that the underlying means of the two paired groups are equal. The Probability that one group has higher Relative Rates than the other group is shown in various tables in the Examples.
The following components were used in the system for bioremediating contaminated ground water microcosms in Examples 2-8: • 160 milliliter (ml) stoppered serum bottles • 100 ml of anaerobic culture medium, groundwater containing an excess of bioavailable phosphorus and nitrogen at 0.5 mM Phosphate and 1 mM ammonium degassed with a nitrogen sparge • Nominally 1 gram of limestone • 19.54 micromoles (pmoles) Perchloroethene (PCE) • An excess of various electron donors were utilized • 3 ml of inoculum containing dechlorinating bacteria known to convert PCE to ethene. […]

For experiment [4] the test system is unchanged. The experiment is described as follows: Set G: Efficiency by VFA Analysis.
Text: as §2
The method used to calculate the consumption of the electron donor measured the propionate, acetate and formate levels to calculate the consumption of electron donor over time. The lactate and propionate fermented very rapidly resulting in acetate and formate as the only measurable VFAs.
Set G contained microcosms that tested two different Yeast Metabolites (YM3 and YM4) and a Polysaccharide (PS1) for kinetics and efficiency of electron donor utilization using lactate and molasses as the electron donors. PS1 was also tested as an electron donor by itself.
Lactate at 11.2 mM (1,000 mg/L) and nutrient amendment at 1% of the electron donor levels (˜10 mg/L). Triplicate bottles received 2 micro liters of PCE and 2 ml of inoculum. The bottles were sampled 5 times over a 138 day period.

`O=C1O[C@H]([C@H](O)CO)C([O-])=C1O.[Na+]` [Na-Erythorbate, Sodium Erythorbate]: the “Ethene generation (in words)” value in experiment [1] is on record as “starting to generate Ethene”.
With `O=C([O-])[C@H](O)[C@@H](O)[C@H](O)[C@H](O)CO.[Na+]` [Na-Gluconate, Sodium Gluconate], the “Ethene generation (in words)” value in experiment [1] was “starting to generate Ethene”.
On to `O=C([O-])CC(O)(CC(=O)[O-])C(=O)[O-].[Na+].[Na+].[Na+]` [Sodium Citrate], for which, in experiment [2], the “ability to dechlorinate PCE (in words)” value was “ability to completely dechlorinate PCE” and the “dechlorination speed compared to Lactate Control / other amendments (in words)” value was “almost as fast”. The “efficient as the Lactate Control (Relative Efficiency)” value in experiment [2] (electron donor nominally 1,000 mg/L vs lactate 7 mM) stood at 84%.
As to inulin [PS1], the “Relative Rate” value is 0.03 and 0.04 and 0.05 in experiment [3] (time 35 days); 0.02 and 0.01 (2×) in experiment [3] (time 50 days); 0.03 and 0.04 and 0.02 in experiment [3] (time 79 days); 0.00 in experiment [3] (time 138 days). Further, the “Estimated % Efficiency” value in experiment [4] (e^- used dechlorination / e^- used donor) is recorded as 0.283%. In experiment [4] (relative to Lactate Control = 100%), the “Relative Efficiency” value was determined as 5%.
